Measurements from patent publication US8609862B2, “Use of an adrenal hormone-modifying agent” (Novartis AG, priority 2010, dated 2013).

Columns and labels:
CYP11B1 = target: T1, CYP11B1 (Rattus norvegicus, UniProt P15393); test: In vivo CYP11B1 assay: plasma corticosterone concentration (PCC) in ACTH-infused conscious rats; details: ACTH infusion; for % Reduction from baseline PCC t = 1 h: 1 h after dosing; for % Reduction from baseline PCC 8 h: 8 h after dosing
T1 construct: from tissue; host or cells: whole animal: conscious male Sprague-Dawley rats under ACTH infusion (the adrenal gland as site of the enzyme comes from the background, b5)
T1 sequence (P15393 25-499): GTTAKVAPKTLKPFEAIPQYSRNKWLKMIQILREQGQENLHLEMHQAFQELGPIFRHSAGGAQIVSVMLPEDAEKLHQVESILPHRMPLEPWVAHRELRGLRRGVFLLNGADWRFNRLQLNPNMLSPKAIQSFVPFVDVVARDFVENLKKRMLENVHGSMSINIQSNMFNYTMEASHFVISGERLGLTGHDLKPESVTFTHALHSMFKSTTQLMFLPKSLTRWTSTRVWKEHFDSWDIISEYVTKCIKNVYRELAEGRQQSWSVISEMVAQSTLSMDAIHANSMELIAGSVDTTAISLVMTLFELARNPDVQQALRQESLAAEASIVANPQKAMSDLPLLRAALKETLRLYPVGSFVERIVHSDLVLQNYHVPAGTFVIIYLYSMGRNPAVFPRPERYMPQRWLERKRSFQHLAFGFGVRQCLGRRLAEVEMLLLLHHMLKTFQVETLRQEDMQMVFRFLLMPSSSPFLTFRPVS
Protocol: The in vivo effects of compounds on plasma aldosterone concentration (PAC) and plasma glucocorticoid (corticosterone) concentration (PCC) were evaluated in conscious rats.
Male Sprague-Dawley rats (˜400-600 g body weight) were surgically instrumented with a femoral arterial and venous catheter. The catheters were exteriorized from the lower back through a stainless steel spring and swivel system that enabled the rats to move freely at all times. Rats were allowed at least one week to recover from the surgery before initiating the experiments.
On the morning of the experiment, a pretreatment blood sample was collected on heparin from the arterial catheter. The blood samples were spun in a refrigerated centrifuge to generate plasma. The plasma was stored frozen at −70° C. until the later measurement of PAC and PCC (by radioimmunoassay). Adrenocorticotropic hormone (ACTH(1-24), referred to herein as ACTH) was then administered as an intravenous (i.v.) bolus (100 ng/kg) followed by a continuous i.v. infusion (30 ng/kg/min) for 9 hours. After one hour of infusion, a baseline (time 0) blood sample was withdrawn from the arterial catheter and processed and stored as described above. The rats were then dosed (typically 0.01 to 100 mg/kg) with the test compound p.o. by oral gavage or parenterally via the arterial catheter (i.a.). Compounds were formulated in an appropriate vehicle (e.g., water (p.o.) or saline (i.a.)) at a physiologically compatible volume (typically 1-2 ml/kg). Additional blood samples were withdrawn at 0.083 (i.a. only), 0.25, 0.5, 1, 2, 3, 4, 5, 6, 7, 8, and 24 hours after dosing with compound and processed and stored as above for later determination of PAC, PCC, and plasma compound concentration (by LC/MS/MS). Oral bioavailability and traditional pharmacokinetic (PK) parameters were estimated from the plasma compound concentrations.
Based on the plasma compound concentration at each dose, the PK/PD (pharmacodynamic) profiles (reduction of PAC and PCC) of each compound were determined.

Human CYP11B1 = target: T2, Human CYP11B1 (Homo sapiens, UniProt P15538); test: In vitro human CYP11B1 assay; assay type: biochemical; details: V79-4 cell homogenate, 11-deoxycortisol to cortisol, SPA
T2 construct: made in house; host or cells: V79-4 cell line #618 (stably selected with geneticin and hygromycin); sonicated homogenate, 500 x g supernatant
T2 sequence (P15538 25-503): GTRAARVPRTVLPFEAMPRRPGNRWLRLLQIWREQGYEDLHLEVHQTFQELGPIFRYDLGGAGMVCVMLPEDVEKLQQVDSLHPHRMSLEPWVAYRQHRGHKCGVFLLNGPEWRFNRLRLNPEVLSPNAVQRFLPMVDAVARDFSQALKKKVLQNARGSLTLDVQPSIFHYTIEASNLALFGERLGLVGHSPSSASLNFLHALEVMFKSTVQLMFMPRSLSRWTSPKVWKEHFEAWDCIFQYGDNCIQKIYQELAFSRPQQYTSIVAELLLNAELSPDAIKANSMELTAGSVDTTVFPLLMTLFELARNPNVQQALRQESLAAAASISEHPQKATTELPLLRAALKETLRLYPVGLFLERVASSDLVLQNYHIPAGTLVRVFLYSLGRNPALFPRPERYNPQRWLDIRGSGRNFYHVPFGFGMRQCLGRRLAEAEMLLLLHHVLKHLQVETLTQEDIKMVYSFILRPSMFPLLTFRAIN
Description: Complete EDTA-free protease inhibitor tablets were obtained from Roche Applied Science (Indianapolis, Ind.). Dulbecco's modified Eagle medium (DMEM), antibiotic, geneticin, hygromycin, and fetal bovine serum (FBS) were products of Invitrogen (Carlsbad, Calif.). NADPH Regeneration Solution A and Solution B were purchased from BD Biosciences Clontech (Palo Alto, Calif.). Anti-mouse PVT SPA beads and [1,2,6,7-^3H(N)]hydrocortisone were acquired from Amersham (Piscataway, N.J.) and PerkinElmer (Boston, Mass.), respectively.
Following 4 days of growth, cells were washed once with PBS, scraped and collected in PBS, and centrifuged at 1,300 rpm for 6 min. […] The sonication procedure was repeated 3 more times, with a 5 min rest on ice between sonications. The sonicated material was then spun at 500×g for 4 min to remove unbroken cells. The supernatant was brought to a final glycerol concentration of 5%, flash-frozen in liquid nitrogen, and stored at −80° C.
The CYP11B1 assays were performed in 96-well U-bottom non-tissue-culture-treated plates. […] Plates were then centrifuged at 2,400 rpm for 6 min, and 50 μl of supernatant was removed for measurement of cortisol content by scintillation proximity assay (SPA). Measurement of cortisol was performed using a 96-well plate format. […] Anti-mouse PVT SPA beads (50 μl) were then added to each well and incubated overnight at room temperature prior to counting in a Microbeta plate counter. The amount of cortisol in each sample was calculated by comparing with a standard curve generated using known quantities of the hormone. Full concentration-response curves of an inhibitor were performed at least 3 times. The IC50 values were derived using a non-linear least squares curve-fitting program from IDBS XLfit.

N#Cc1ccc(C2CCCCc3cncn32)c(-c2ccc(F)cc2)c1 (single isomer, unassigned) [4′-fluoro-6-(6,7,8,9-tetrahydro-5H-imidazo[1,5-a]azepin-5-yl)biphenyl-3-carbonitrile] was tested, and the “% Reduction from baseline PCC t = 1 h” value (CYP11B1; 3 mg/kg i.a.) was 89%, the “% Reduction from baseline PCC 8 h” value (CYP11B1; 3 mg/kg i.a.) was 43% and the IC50 (Human CYP11B1) was 0.3 nM.

In the case of COc1ccc(CN(C)C(=O)C2(c3ccc(C#N)cc3Cl)CCc3cncn32)cc1 (stereo not drawn) [5-(2-chloro-4-cyanophenyl)-N-(4-methoxybenzyl)-N-methyl-6,7-dihydro-5H-pyrrolo[1,2-c]imidazole-5-carboxamide], the “% Reduction from baseline PCC t = 1 h” value (CYP11B1; 30 mg/kg i.a.) is reported as 76%, the “% Reduction from baseline PCC 8 h” value (CYP11B1; 30 mg/kg i.a.) is reported as 78% and the IC50 (Human CYP11B1) is reported as 0.8 nM.

In the case of N#Cc1ccc(C2CCCCc3cncn32)c(Br)c1 (racemic) [3-bromo-4-(6,7,8,9-tetrahydro-5H-imidazo[1,5-a]azepin-5-yl)benzonitrile racemate, 3-bromo-4-(6,7,8,9-tetrahydro-5H-imidazo[1,5-a]azepin-5-yl)benzonitrile], the “% Reduction from baseline PCC t = 1 h” value (CYP11B1; 10 mg/kg p.o.) is reported as 70%, the “% Reduction from baseline PCC 8 h” value (CYP11B1; 10 mg/kg p.o.) is reported as 87% and the IC50 (Human CYP11B1) is reported as 0.2 nM.
